The source of these data is patent publication US11104648B2, “Pyrazole derivative” (Zhejiang Research Institute of Chemical Industry Co., Ltd., priority 2018, dated 2021).

SMILES strings stand for the structures. Where two headings read alike, the source gives them in different places.

Common to all, as to type: in vivo
The test system of experiment [1] is adult Tetranychus cinnabarinus. In words: Activity assay of adult Tetranychus cinnabarinus (whole-plant spray on bean seedlings). The settings on record: 48 h; for pest or weed control at 1.25 µg/mL: concentration 1.25 mg/L. The method, boiled down:
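Bean seedlings at two-true-leaf stage, infested with adult mites and base count taken, sprayed whole-plant with compound in DMF (≤10%) diluted in 1‰ Tween 80. Three replicates per treatment kept in standard observation room. Surviving mites counted at 48 h to give death rate.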

For experiment [2], the system named is Tetranychus cinnabarinus Nymphs. Description: Activity assay of Tetranychus cinnabarinus nymphs (spray on broad bean leaves). The method, boiled down:
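Compound in DMF (≤10%) diluted in 1‰ Tween 80 water was sprayed onto broad bean leaves carrying nymphs hatched from eggs laid by female adults over 24 h. Kept at 26±2° C., 70%–80% humidity, 16 h light; mortality (no response to touch) assessed after 48 h, three replicates with blank control.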

For experiment [3], the system named is Eggs of Tetranychus Cinnabarinus. In words: Activity assay of eggs of Tetranychus cinnabarinus (spray method, ovicidal). The note with it: Tetranychus cinnabarinus; for pest or weed control at 2 µg/mL: concentration 2 mg/L. In a few lines:
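Female mites laid eggs on broad bean leaves for 24 h, adults removed, eggs sprayed with compound in DMF (≤10%)/1‰ Tween 80. Held at 26±2° C, 70–80% humidity, 16 h light; unhatched eggs counted dead once blank control hatched. Three replicates.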

Where [4] appears, read: concentration 2.5 mg/L, read-out: adult mite-killing activity.
Where [5] appears, read: 48 h, concentration 2.5 mg/L, read-out: nymph-killing activity.
Setting [6] is: concentration 5 mg/L, spray, non-incubated eggs counted as dead, read-out: ovicidal activity.
[7] abbreviates: read-out: adult mite-killing activity.
Where [8] appears, read: 48 h, read-out: nymph-killing activity.
Setting [9] is: 48 h, concentration 2 mg/L, read-out: nymph-killing activity.
Where [10] appears, read: spray, read-out: ovicidal activity.

Regarding `CCn1nc(C)c(Cl)c1/C(OCOC(=O)OC)=C(\C#N)c1ccc(C(C)(C)C)cc1` [Compound 739], the pest or weed control at 2.5 µg/mL is not below 90% in experiment [1] (setting [4]) and not below 95% in experiment [2] (setting [5]). The pest or weed control at 5 µg/mL in experiment [3] (setting [6]) is not below 90%.
As for `COCCOC(=O)OC(C)O/C(=C(/C#N)c1ccc(C(C)(C)C)cc1)c1cc(C)nn1C` (stereo not drawn) [Compound 500], the pest or weed control at 2.5 µg/mL in experiment [1] (setting [4]) was not below 90%; in experiment [2] (setting [5]), not below 95%. Also, the pest or weed control at 5 µg/mL in experiment [3] (setting [6]) is not below 90%.
`Cc1cc(/C(OC(C)OC(=O)OCCC(C)C)=C(\C#N)c2ccc(C(C)(C)C)cc2)n(C)n1` (stereo not drawn) [Compound 490]: the pest or weed control at 2.5 µg/mL in experiment [1] (setting [4]) was not below 90%; in experiment [2] (setting [5]), not below 95%. For the same compound, in experiment [3] (setting [6]), the pest or weed control at 5 µg/mL is not below 90%.
As for `Cc1cc(/C(OC(C)OC(=O)CF)=C(\C#N)c2ccc(C(C)(C)C)cc2)n(C)n1` (stereo not drawn) [Compound 37], the figures for the pest or weed control at 2.5 µg/mL in experiment [1] (setting [7]) and in experiment [2] (setting [8]) were not below 90% and not below 95%, respectively. Besides, the pest or weed control at 5 µg/mL in experiment [3] (read-out: ovicidal activity) is not below 90%.
Consider `C=CCOC(=O)OC(C)O/C(=C(/C#N)c1ccc(C(C)(C)C)cc1)c1cc(C)nn1CC` (stereo not drawn) [Compound 602], for which the pest or weed control at 1.25 µg/mL in experiment [1] (setting [7]) was not below 90%. The pest or weed control at 2.5 µg/mL is not below 90% in experiment [1] (setting [4]) and not below 95% in experiment [2] (setting [5]). The pest or weed control at 2 µg/mL in experiment [2] (setting [9]) and in experiment [3] (setting [10]) was not below 90% throughout. Also, the pest or weed control at 5 µg/mL in experiment [3] (setting [6]) is not below 90%.
On to `CCn1nc(C)cc1/C(OCOC(=O)OCC(F)(F)F)=C(\C#N)c1ccc(C(C)(C)C)cc1` [Compound 563], for which the pest or weed control at 2.5 µg/mL was not below 90% in experiment [1] (setting [4]) and not below 95% in experiment [2] (setting [5]). In addition, the pest or weed control at 5 µg/mL in experiment [3] (setting [6]) is not below 90%.
With `CCn1nc(C)c(C)c1/C(OC(C)OC(=O)C1CC1)=C(\C#N)c1ccc(C(C)(C)C)cc1` (stereo not drawn) [Compound 409], the pest or weed control at 1.25 µg/mL in experiment [1] (setting [7]) was not below 90%. Besides, the pest or weed control at 2.5 µg/mL is not below 90% in experiment [1] (setting [4]) and not below 95% in experiment [2] (setting [5]). Also, the pest or weed control at 2 µg/mL in experiment [2] (setting [9]) and in experiment [3] (setting [10]) was not below 90% throughout. For the same compound, the pest or weed control at 5 µg/mL in experiment [3] (setting [6]) was not below 90%.
Consider `Cc1nn(C)c(/C(OCOC(=O)CC(C)C)=C(\C#N)c2ccc(C(C)(C)C)cc2)c1C` [Compound 157], for which the results for the pest or weed control at 2.5 µg/mL in experiment [1] (setting [4]) and in experiment [2] (setting [5]) were not below 90% and not below 95%, respectively. Moreover, the pest or weed control at 5 µg/mL in experiment [3] (setting [6]) is not below 90%.
Regarding `CCn1nc(C)cc1/C(OCOC(=O)COC)=C(\C#N)c1ccc(C(C)(C)C)cc1` [Compound 233], the figures for the pest or weed control at 2.5 µg/mL in experiment [1] (setting [4]) and in experiment [2] (setting [5]) were not below 90% and not below 95%, respectively. Moreover, in experiment [3] (setting [6]), the pest or weed control at 5 µg/mL is not below 90%.
On to `CCn1nc(C)c(C)c1/C(OCOC(=O)Cc1ccccc1)=C(\C#N)c1ccc(C(C)(C)C)cc1` [Compound 390], for which the pest or weed control at 2.5 µg/mL in experiment [1] (setting [4]) is not below 90%; in experiment [2] (concentration 2.5 mg/L, 48 h, read-out: nymph-killing activity), not below 95%. Also, in experiment [3] (setting [6]), the pest or weed control at 5 µg/mL is not below 90%.
Take `Cc1nn(C)c(/C(OC(C)OC(=O)CF)=C(\C#N)c2ccc(C(C)(C)C)cc2)c1C` (stereo not drawn) [Compound 187]: the pest or weed control at 2.5 µg/mL in experiment [1] (setting [7]) is not below 90%; in experiment [2] (setting [8]), not below 95%. The pest or weed control at 5 µg/mL in experiment [3] (read-out: ovicidal activity) was not below 90%.
For the compound `CCCCC(=O)OC(C)O/C(=C(/C#N)c1ccc(C(C)(C)C)cc1)c1cc(C)nn1C` (stereo not drawn) [Compound 31], the pest or weed control at 2.5 µg/mL in experiment [1] (setting [4]) is not below 90%; in experiment [2] (setting [5]), not below 95%. Besides, the pest or weed control at 5 µg/mL in experiment [3] (setting [6]) was not below 90%.
For `CCn1nc(C)c(Cl)c1/C(OC(C)OC(C)=O)=C(\C#N)c1ccc(C(C)(C)C)cc1` (stereo not drawn) [Compound 326], the pest or weed control at 1.25 µg/mL in experiment [1] (setting [7]) is not below 90%. In addition, the figures for the pest or weed control at 2.5 µg/mL in experiment [1] (setting [4]) and in experiment [2] (setting [5]) were not below 90% and not below 95%, respectively. The pest or weed control at 2 µg/mL in experiment [2] (setting [9]) and in experiment [3] (setting [10]) was not below 90% in each case. For the same compound, the pest or weed control at 5 µg/mL in experiment [3] (setting [6]) was not below 90%.
As for `Cc1nn(C)c(/C(OC(C)OC(=O)C2CCCCC2)=C(\C#N)c2ccc(C(C)(C)C)cc2)c1C` (stereo not drawn) [Compound 186], the pest or weed control at 2.5 µg/mL was not below 90% in experiment [1] (setting [4]) and not below 95% in experiment [2] (setting [5]). Moreover, in experiment [3] (setting [6]), the pest or weed control at 5 µg/mL is not below 90%.
Regarding `C=CC(=O)OCO/C(=C(/C#N)c1ccc(C(C)(C)C)cc1)c1cc(C)nn1CC` [Compound 242], the pest or weed control at 2.5 µg/mL in experiment [1] (setting [4]) was not below 90%; in experiment [2] (setting [5]), not below 95%. For the same compound, the pest or weed control at 5 µg/mL in experiment [3] (setting [6]) was not below 90%.
`Cc1nn(C)c(/C(OCOC(=O)C2CCCCC2)=C(\C#N)c2ccc(C(C)(C)C)cc2)c1C` [Compound 161]: the pest or weed control at 2.5 µg/mL is not below 90% in experiment [1] (setting [4]) and not below 95% in experiment [2] (setting [5]). Further, the pest or weed control at 5 µg/mL in experiment [3] (setting [6]) was not below 90%.
In the case of `CCn1nc(C)c(C)c1/C(OC(C)OC(=O)C(F)(F)F)=C(\C#N)c1ccc(C(C)(C)C)cc1` (stereo not drawn) [Compound 413], the pest or weed control at 2.5 µg/mL in experiment [1] (setting [4]) was not below 90%; in experiment [2] (setting [5]), not below 95%. Besides, the pest or weed control at 5 µg/mL in experiment [3] (setting [6]) is not below 90%.
With `Cc1cc(/C(OC(C)OC(=O)C(C)C)=C(\C#N)c2ccc(C(C)(C)C)cc2)n(C)n1` (stereo not drawn) [Compound 29], the pest or weed control at 2.5 µg/mL was not below 90% in experiment [1] (setting [4]) and not below 95% in experiment [2] (setting [5]). In experiment [3] (setting [6]), the pest or weed control at 5 µg/mL is not below 90%.
Regarding `CCn1nc(C)cc1/C(OCOC(C)=O)=C(\C#N)c1ccc(C(C)(C)C)cc1` [Compound 226], the pest or weed control at 1.25 µg/mL in experiment [1] (adult mites, parallel determination, read-out: Death rate (%)) is 96%; in experiment [1] (setting [7]), not below 90%. Besides, the results for the pest or weed control at 2.5 µg/mL in experiment [1] (setting [4]) and in experiment [2] (setting [5]) were not below 90% and not below 95%, respectively. Further, the pest or weed control at 2 µg/mL in experiment [2] (setting [9]) is not below 90%; in experiment [3] (setting [10]), not below 90%; in experiment [3] (eggs, parallel determination, read-out: Death rate (%)), 100%. Moreover, the pest or weed control at 0.5 µg/mL in experiment [2] (48 h, nymphs, concentration 0.5 mg/L, parallel determination, read-out: Death rate (%)) came to 90%. Further, the pest or weed control at 5 µg/mL in experiment [3] (setting [6]) is not below 90%.
On to `CSCC(=O)OC(C)O/C(=C(/C#N)c1ccc(C(C)(C)C)cc1)c1c(C)c(C)nn1C` (stereo not drawn) [Compound 185], for which the figures for the pest or weed control at 2.5 µg/mL in experiment [1] (setting [4]) and in experiment [2] (setting [5]) were not below 90% and not below 95%, respectively. The pest or weed control at 5 µg/mL in experiment [3] (setting [6]) was not below 90%.
As to `CCCC(=O)OCO/C(=C(/C#N)c1ccc(C(C)(C)C)cc1)c1cc(C)nn1C` [Compound 3], the pest or weed control at 2.5 µg/mL in experiment [1] (setting [4]) is not below 90%; in experiment [2] (setting [5]) it was not below 95%. Besides, the pest or weed control at 5 µg/mL in experiment [3] (setting [6]) is not below 90%.
For `CCn1nc(C)cc1/C(OC(C)OC(=O)C1CC1)=C(\C#N)c1ccc(C(C)(C)C)cc1` (stereo not drawn) [Compound 259], the pest or weed control at 1.25 µg/mL in experiment [1] (setting [7]) is not below 90%. Besides, the pest or weed control at 2.5 µg/mL in experiment [1] (setting [4]) was not below 90%; in experiment [2] (setting [5]), not below 95%. Further, the pest or weed control at 2 µg/mL in experiment [2] (setting [9]) and in experiment [3] (setting [10]) was not below 90% each time. In addition, in experiment [3] (setting [6]), the pest or weed control at 5 µg/mL was not below 90%.
As to `CCCC(=O)OC(C)O/C(=C(/C#N)c1ccc(C(C)(C)C)cc1)c1c(Cl)c(C)nn1CC` (stereo not drawn) [Compound 328], the figures for the pest or weed control at 2.5 µg/mL in experiment [1] (setting [4]) and in experiment [2] (setting [5]) were not below 90% and not below 95%, respectively. The pest or weed control at 5 µg/mL in experiment [3] (setting [6]) is not below 90%.
For `CCn1nc(C)c(Cl)c1/C(OC(C)OC(=O)C(C)(C)C)=C(\C#N)c1ccc(C(C)(C)C)cc1` (stereo not drawn) [Compound 330], the pest or weed control at 2.5 µg/mL in experiment [1] (setting [4]) was not below 90%; in experiment [2] (setting [5]) it was not below 95%. Besides, the pest or weed control at 5 µg/mL in experiment [3] (setting [6]) is not below 90%.
Regarding `CCn1nc(C)c(C)c1/C(OC(C)OC(=O)C(C)C)=C(\C#N)c1ccc(C(C)(C)C)cc1` (stereo not drawn) [Compound 404], the pest or weed control at 2.5 µg/mL was not below 90% in experiment [1] (setting [4]) and not below 95% in experiment [2] (setting [5]). For the same compound, in experiment [3] (setting [6]), the pest or weed control at 5 µg/mL is not below 90%.
